Molecular target: T1, HIV-1 protease (Q7S mutant form) (Human immunodeficiency virus type 1 group M subtype B, UniProt P04585, Q495S)
T1 construct: made in house
Assay: HIV-1 Protease RET assay
Assay type: biochemical
Conditions: Ave. Ki (nM), RET assay, Q7S enzyme, Morrison tight binding fit
Experimental: Ki's for the inhibitors of HIV-1 protease were determined using a resonance energy transfer (RET) assay. […] This enzyme is first partially purified as inclusion bodies from cell lysate. It is then solublized in 8M urea and passed through a Q-Sepharose column (Pharmacia) for further purification. To refold this protein, samples containing Q7S is dialyzed into 50 mM sodium phosphate pH 7.0, 50 mM NaCl, 10 mM DTT, and 10% glycerol.
The commercially available peptide substrate (Molecular Probes Cat. # H-2930) RE(EDANS)SQNYPIVQK(DABCYL)R is used to assess activity and Ki's. This peptide is cleaved quantitatively by HIV-1 Pr at the Tyr-Pro bond. The EDANS fluorophore absorbs at 340 nm and emits at 490 nm. The reaction is carried out in a 96 well plate in a total volume of 100 µL and is run for 12 minutes at 37 C under steady-state conditions with 5 µM substrate and 2 nM active dimer enzyme concentration. The literature value Km for this substrate and enzyme is 103+/−8 µM (See Matayoshi, et al., “Novel Fluorogenic Substrates for Assaying Retroviral Proteases by Resonance Energy Transfer,” Science 247, 954 (1990)). The buffer for this reaction is 0.1M sodium acetate pH 4.8, 1M NaCl, 1 mM EDTA, 5 mM dithiothreitol, 10% dimethyl sulfoxide and 1 mg/ml bovine serum albumin. Inhibition curves are fit using the Morrison tight binding equation.

Compound `C=CCOC(=O)N[C@@H](Cc1ccccc1)[C@H](O)C(=O)N1CSC(C)(C)[C@H]1C(=O)NCc1c(F)cccc1F` [Example B50, {(1S,2S)-1-Benzyl-3-[(R)-4-(2,6-difluoro-benzylcarbamoyl)-5,5-dimethyl-thiazolidin-3-yl]-2-hydroxy-3-oxo-propyl}-carbamic acid allyl ester] has a Ki of 7.4 nM.
Compound `CC1(C)SCN(C(=O)[C@@H](O)[C@H](Cc2ccccc2)NC(=O)NCc2ccccc2C(F)(F)F)[C@@H]1C(=O)NCc1ccccc1C(F)(F)F` [Example B52, 3-{(2S,3S)-2-Hydroxy-4-phenyl-3-[3-(2-trifluoromethyl-benzyl)-ureido]-butyryl}-5,5-dimethyl-thiazolidine-4-carboxylic acid 2-trifluoromethyl-benzylamide] has a Ki of 120 nM.
With `Cc1ccccc1CNC(=O)[C@H]1N(C(=O)[C@@H](O)[C@H](Cc2ccccc2)NC(=O)Nc2cccc(F)c2)CSC1(C)C` [Example B55, 3-{(2S,3S)-3-[3-(3-Fluoro-phenyl)-ureido]-2-hydroxy-4-phenyl-butyryl}-5,5-dimethyl-thiazolidine-4-carboxylic acid 2-methyl-benzylamide] the Ki was 679 nM.
With `Cc1ccccc1CNC(=O)[C@H]1N(C(=O)C(O)C(Cc2ccccc2)NS(=O)(=O)c2ccc(C#N)cc2)CSC1(C)C` (stereo partly drawn) [Example B58, 3-[(2S,3S)-3-(4-Cyano-benzenesulfonylamino)-2-hydroxy-4-phenyl-butyryl]-5,5-dimethyl-thiazolidine-carboxylic acid 2-methyl-benzylamide] the Ki was 240 nM.
Work on `CC1(C)SCN(C(=O)[C@@H](O)[C@H](Cc2ccccc2)NC(=O)NCc2ccccc2)[C@@H]1C(=O)NCc1ccccc1` [Example B61, 3-[(2S,3S)-3-(3-Benzyl-ureido)-2-hydroxy-4-phenyl-butyryl]-5,5-dimethyl-thiazolidine-4-carboxylic acid benzylamide] yielded a Ki of 16.9 nM.
For `Cc1ccccc1CNC(=O)N[C@@H](Cc1ccccc1)[C@H](O)C(=O)N1CSC(C)(C)[C@H]1C(=O)NCc1ccccc1C` [Example B62, 3-{(2S,3S)-2-Hydroxy-3-[3-(2-methyl-benzyl)-ureido]-4-phenyl-butyryl}-5,5-dimethyl-thiazolidine-4-carboxylic acid 2-methyl-benzylamide], the Ki was 4.2 nM.
Compound `COc1ccc(CNC(=O)NC(Cc2ccccc2)C(O)C(=O)N2CSC(C)(C)[C@H]2C(=O)NCc2ccc(OC)cc2)cc1` (stereo partly drawn) [Example B63, 33-{(2S,3S)-2-Hydroxy-3-[3-(4-methoxy-benzyl)-ureido]-4-phenyl-butanoyl}-5,5-dimethyl-thiazolidine-4-carboxylic acid 4-methoxy-benzylamide] has a Ki of 7.8 nM.
Work on `Cc1ccccc1CNC(=O)NC(Cc1ccccc1)C(O)C(=O)N1CSC(C)(C)[C@H]1C(=O)NCc1ccncc1` (stereo partly drawn) [Example B66, 3-{(2S,3S)-2-Hydroxy-3-[3-(2-methyl-benzyl)-ureido]-phenyl-butyryl}-5,5-dimethyl-thiazolidine-4-carboxylic acid (pyridin-4-ylmethyl)-amide] yielded a Ki of 5.2 nM.
Work on `COc1ccc(CNC(=O)N[C@@H](Cc2ccccc2)[C@H](O)C(=O)N2CSC(C)(C)[C@H]2C(=O)NCc2ccccc2C)cc1OC` [Example B74, (R)-3-{(2S,3S)-3-[3-(3,4Dimethoxy-benzyl)ureido]-2-hydroxy-4-phenyl-butyryl}-5,5-dimethyl-thiazolidine-4-carboxylic acid 2-methyl-benzylamide] yielded a Ki of 39 nM.
Work on `Cc1ccccc1CNC(=O)[C@H]1N(C(=O)[C@@H](O)[C@H](Cc2ccccc2)NC(=O)NCc2cccc(C(F)(F)F)c2)CSC1(C)C` [Example B75, (R)-3-{(2S,3S)-2-Hydroxy-4-phenyl-3-[3-(3-trifluoromethyl-benzyl)-ureido]-butyryl}-5,5-dimethyl-thiazolidine-4-carboxylic acid 2-methyl-benzylamide] yielded a Ki of 81 nM.

Source: patent US7094909B2, “HIV protease inhibitors, compositions containing the same, their pharmaceutical uses and materials for their synthesis” (priority 2001, dated 2006)
